SMILES strings stand for the structures. Where a SMILES comes first, the peptide text is derived from it. Bridges are numbered along the chain shown (N, C = ends). [ ]: non-standard residue; d: D form. Trp(1-CH2COOH) = N[C@@H](Cc1cn(CC(=O)O)c2ccccc12)C(=O)O; NMePhe(3-Cl) = CN[C@@H](Cc1cccc(Cl)c1)C(=O)O; NMeW = CN[C@@H](Cc1c[nH]c2ccccc12)C(=O)O; Phe(4-F) = N[C@@H](Cc1ccc(F)cc1)C(=O)O; NMeY = CN[C@@H](Cc1ccc(O)cc1)C(=O)O; NMeF = CN[C@@H](Cc1ccccc1)C(=O)O

Chain of transferrin receptor (hTfR) (P02786 whole entry): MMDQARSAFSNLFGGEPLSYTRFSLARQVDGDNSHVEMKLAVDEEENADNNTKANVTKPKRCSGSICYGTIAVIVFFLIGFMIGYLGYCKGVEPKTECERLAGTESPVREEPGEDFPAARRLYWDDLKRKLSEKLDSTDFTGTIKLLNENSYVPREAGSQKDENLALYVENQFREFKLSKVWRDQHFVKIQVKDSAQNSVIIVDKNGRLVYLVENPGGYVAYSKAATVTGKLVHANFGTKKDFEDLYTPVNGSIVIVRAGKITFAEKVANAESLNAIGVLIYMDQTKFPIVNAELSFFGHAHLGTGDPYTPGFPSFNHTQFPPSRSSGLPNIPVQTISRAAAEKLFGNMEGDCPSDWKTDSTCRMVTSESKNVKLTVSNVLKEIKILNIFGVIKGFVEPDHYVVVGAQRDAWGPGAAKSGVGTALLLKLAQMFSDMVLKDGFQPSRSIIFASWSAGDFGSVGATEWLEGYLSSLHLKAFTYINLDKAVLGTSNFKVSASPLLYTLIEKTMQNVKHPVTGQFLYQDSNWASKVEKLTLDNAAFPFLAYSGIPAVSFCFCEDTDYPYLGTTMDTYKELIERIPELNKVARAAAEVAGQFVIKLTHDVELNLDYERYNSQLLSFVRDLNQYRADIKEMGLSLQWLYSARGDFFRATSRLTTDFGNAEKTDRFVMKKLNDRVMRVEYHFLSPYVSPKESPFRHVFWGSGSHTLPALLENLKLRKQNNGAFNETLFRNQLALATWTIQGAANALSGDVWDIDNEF

One test addresses transferrin receptor (hTfR) (Homo sapiens, UniProt P02786). Kind of test: Intermolecular interaction evaluation test between transferrin receptor (hTfR) and peptide by surface plasmon resonance (SPR). It counts as binding. The following applies: SPR, hTfR; class symbols A-D; read-out: KD. A digest of the protocol:
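hTfR captured on Ni-NTA chip then amine-coupled; peptides run single-cycle kinetics at 5–100 nM in 10 mM HEPES pH 8.0, 150 mM NaCl, 0.05% Tween 20, 0.1% BSA, 1.0% DMSO. KD from least-squares curve fitting of sensorgrams.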
Background: In SPR one partner is held on a chip, and binding of the other changes the refractive index at the surface.
The Kd is the constant that tells how readily two partners part at equilibrium. Take `CC[C@H](C)[C@@H]1NC(=O)[C@H](Cc2ccc(OC)cc2)NC(=O)[C@H](Cc2ccc(O)cc2)NC(=O)[C@H](CC(N)=O)NC(=O)[C@H](Cc2c[nH]c3ccccc23)N(C)C(=O)[C@H](C(C)C)NC(=O)[C@H](Cc2cccc(Cl)c2)N(C)C(=O)[C@H](C(C)C)NC(=O)[C@H](C)NC(=O)CSC[C@@H](C(N)=O)NC(=O)[C@H](Cc2ccc(O)cc2)N(C)C(=O)[C@H](Cc2cccnc2)NC(=O)[C@@H](CCCNC(=N)N)NC(=O)[C@H](CCCNC(=N)N)NC(=O)[C@H]([C@@H](C)CC)NC1=O` [compound 460]: the Kd fell in the range of 1 to 100 nM.
For `CC[C@H](C)[C@@H]1NC(=O)[C@H](Cc2ccc(OC)cc2)NC(=O)[C@H](Cc2ccc(O)cc2)NC(=O)[C@H](CC(N)=O)NC(=O)[C@H](Cc2c[nH]c3ccccc23)N(C)C(=O)[C@H](C(C)C)NC(=O)[C@H](Cc2cccc(Cl)c2)N(C)C(=O)[C@H](C(C)C)NC(=O)[C@H](C)NC(=O)CSC[C@@H](C(N)=O)NC(=O)[C@H](Cc2ccc(O)cc2)N(C)C(=O)[C@H](Cc2cccc(C(=O)O)c2)NC(=O)[C@@H](CCCNC(=N)N)NC(=O)[C@H](CCCNC(=N)N)NC(=O)[C@H]([C@@H](C)CC)NC1=O` [compound 461], the Kd was 1 to 100 nM.
Take `CC[C@H](C)[C@@H]1NC(=O)[C@H](Cc2ccc(OC)cc2)NC(=O)[C@H](Cc2ccc(O)cc2)NC(=O)[C@H](CC(N)=O)NC(=O)[C@H](Cc2c[nH]c3ccc(Cl)cc23)NC(=O)[C@H](C(C)C)NC(=O)[C@H](Cc2cccc(Cl)c2)N(C)C(=O)[C@H](C(C)C)NC(=O)[C@H](C)NC(=O)CSC[C@@H](C(N)=O)NC(=O)[C@H](Cc2ccc(O)cc2)N(C)C(=O)[C@H](Cc2ccccc2)NC(=O)[C@@H](CCCNC(=N)N)NC(=O)[C@H](CCCNC(=N)N)NC(=O)[C@H]([C@@H](C)CC)NC1=O` [compound 464]: the Kd is greater than 1000 nM.
Turning to `CC[C@H](C)[C@@H]1NC(=O)[C@H](Cc2ccc(F)cc2)NC(=O)[C@H](Cc2ccc(O)cc2)NC(=O)[C@H](CC(N)=O)NC(=O)[C@H](Cc2c[nH]c3ccccc23)N(C)C(=O)[C@H](C(C)C)NC(=O)[C@H](Cc2cccc(Cl)c2)N(C)C(=O)[C@H](C(C)C)NC(=O)[C@H](C)NC(=O)CSC[C@@H](C(N)=O)NC(=O)[C@H](Cc2ccc(O)cc2)N(C)C(=O)[C@H](Cc2ccccc2)NC(=O)[C@@H](CCCNC(=N)N)NC(=O)[C@H](CCCNC(=N)N)NC(=O)[C@H]([C@@H](C)CC)NC1=O` [compound 467] ({CH2CO}-AV[NMePhe(3-Cl)]V[NMeW]NY[Phe(4-F)]IIR[dR]F[NMeY]C-NH2; thioether N-15), the Kd lay within 1 to 100 nM.
Regarding `CC[C@H](C)[C@@H]1NC(=O)[C@H](Cc2ccc(O)cc2)NC(=O)[C@H](Cc2ccc(O)cc2)NC(=O)[C@H](CC(N)=O)NC(=O)[C@H](Cc2cn(CC(=O)O)c3ccccc23)NC(=O)[C@H](C(C)C)NC(=O)[C@H](Cc2ccccc2)N(C)C(=O)[C@H](C(C)C)NC(=O)[C@H](C)NC(=O)CSC[C@@H](C(N)=O)NC(=O)[C@H](Cc2ccc(O)cc2)N(C)C(=O)[C@H](Cc2ccc(O)cc2)NC(=O)[C@H](CCCNC(=N)N)NC(=O)C(C)(C)NC(=O)[C@H]([C@@H](C)CC)NC1=O` [compound 469], the Kd fell in the range of 1 to 100 nM.
Take `CC[C@H](C)[C@@H]1NC(=O)[C@H](Cc2ccc(O)cc2)NC(=O)[C@H](Cc2ccc(O)cc2)NC(=O)[C@H](CC(N)=O)NC(=O)[C@H](Cc2cn(CC(=O)O)c3ccccc23)NC(=O)[C@H](C(C)C)NC(=O)[C@H](Cc2ccccc2)N(C)C(=O)[C@H](C(C)C)NC(=O)[C@H](C)NC(=O)CSC[C@@H](C(=O)N[C@H](CCC(=O)O)C(N)=O)NC(=O)[C@H](Cc2ccc(O)cc2)N(C)C(=O)[C@H](Cc2ccc(O)cc2)NC(=O)[C@@H](CCCNC(=N)N)NC(=O)[C@H](CCCNC(=N)N)NC(=O)[C@H](CCC(=O)O)NC1=O` [compound 473] ({CH2CO}-AV[NMeF]V[Trp(1-CH2COOH)]NYYIER[dR]Y[NMeY]C[dE]-NH2; thioether N-15): the Kd was 100 to 1000 nM.

Still in this test, the particulars now being: SPR, hTfR; class symbols A-D; read-out: KD (column without head, continuation of the table series).
Consider `CC[C@H](C)[C@@H]1NC(=O)[C@H](Cc2ccc(O)cc2)NC(=O)[C@H](Cc2ccc(O)cc2)NC(=O)[C@H](CC(N)=O)NC(=O)[C@H](Cc2c[nH]c3ccc(Cl)cc23)NC(=O)[C@H](C(C)C)NC(=O)[C@H](Cc2ccc(F)cc2)N(C)C(=O)[C@H](C(C)C)NC(=O)[C@H](C)NC(=O)CSC[C@@H](C(N)=O)NC(=O)[C@H](Cc2ccc(O)cc2)N(C)C(=O)[C@H](Cc2ccccc2)NC(=O)[C@H](CCCCNC(=O)CCOCCOCCOCCOC)NC(=O)[C@H](CCCNC(=N)N)N(C)C(=O)[C@H]([C@@H](C)CC)NC1=O` [compound 489], for which the Kd lay in the range of 100 to 1000 nM.
With `CC[C@H](C)[C@@H]1NC(=O)[C@H](Cc2ccc(O)cc2)NC(=O)[C@H](Cc2ccc(O)cc2)NC(=O)[C@H](CC(N)=O)NC(=O)[C@H](Cc2c[nH]c3ccccc23)NC(=O)[C@H](C(C)C)NC(=O)[C@H](Cc2ccccc2)N(C)C(=O)[C@H](C(C)C)NC(=O)[C@H](C)NC(=O)CSC[C@@H](C(=O)NCC(=O)NCCOCCOCCOCCOCCOCCOCCOCCOCCOCCOCCOCCOCCC(=O)N[C@@H](CCCCN=[N+]=[N-])C(N)=O)NC(=O)[C@H](Cc2ccc(O)cc2)N(C)C(=O)[C@H](Cc2ccc(O)cc2)NC(=O)[C@H](CCCNC(=N)N)NC(=O)[C@H](CCCNC(=N)N)NC(=O)[C@H]([C@@H](C)CC)NC1=O` [compound 501], the Kd lay in the range of 1 to 100 nM.
Regarding `CC[C@H](C)[C@@H]1NC(=O)[C@H](Cc2ccc(OC)cc2)NC(=O)[C@H](Cc2ccc(O)cc2)NC(=O)[C@H](CC(N)=O)NC(=O)[C@H](Cc2c[nH]c3ccccc23)NC(=O)[C@H](C(C)C)NC(=O)[C@H](Cc2cccc(Cl)c2)N(C)C(=O)[C@H](C(C)C)NC(=O)[C@H](C)NC(=O)CSC[C@@H](C(=O)NCCOCCOCCOCCOCCC(N)=O)NC(=O)[C@H](Cc2ccc(O)cc2)N(C)C(=O)[C@H](Cc2ccccc2)NC(=O)[C@H](CCCNC(=N)N)NC(=O)[C@H](CCCNC(=N)N)NC(=O)[C@H]([C@@H](C)CC)NC1=O` [compound 502], the Kd is less than 1 nM.
Regarding `CC[C@H](C)[C@@H]1NC(=O)[C@H](Cc2ccc(OC)cc2)NC(=O)[C@H](Cc2ccc(O)cc2)NC(=O)[C@H](CC(N)=O)NC(=O)[C@H](Cc2c[nH]c3ccccc23)NC(=O)[C@H](C(C)C)NC(=O)[C@H](Cc2cccc(Cl)c2)N(C)C(=O)[C@H](C(C)C)NC(=O)[C@H](C)NC(=O)CSC[C@@H](C(=O)NCCOCCOCCOCCOCCC(N)=O)NC(=O)[C@H](Cc2ccc(O)cc2)N(C)C(=O)[C@H](Cc2ccccc2)NC(=O)[C@H](CCCNC(=N)N)NC(=O)[C@H](CCCCN)NC(=O)[C@H]([C@@H](C)CC)NC1=O` [compound 503], the Kd was less than 1 nM.
Take `CC[C@H](C)[C@@H]1NC(=O)[C@H](Cc2ccc(OCCN)cc2)NC(=O)[C@H](Cc2ccc(O)cc2)NC(=O)[C@H](CC(N)=O)NC(=O)[C@H](Cc2c[nH]c3ccccc23)NC(=O)[C@H](C(C)C)NC(=O)[C@H](Cc2ccccc2)N(C)C(=O)[C@H](C(C)C)NC(=O)[C@H](C)NC(=O)CSC[C@@H](C(N)=O)NC(=O)[C@H](Cc2ccc(O)cc2)N(C)C(=O)[C@H](Cc2ccccc2)NC(=O)[C@H](CCCNC(=N)N)NC(=O)[C@H](CCCCN)NC(=O)[C@H]([C@@H](C)CC)NC1=O` [compound 521]: the Kd was 1 to 100 nM.
The same measure, in the same setting: for `CC[C@H](C)[C@@H]1NC(=O)[C@H](Cc2ccc(OCCN)cc2)NC(=O)[C@H](Cc2ccc(O)cc2)NC(=O)[C@H](CC(N)=O)NC(=O)[C@H](Cc2c[nH]c3ccccc23)NC(=O)[C@H](C(C)C)NC(=O)[C@H](Cc2ccccc2)N(C)C(=O)[C@H](C(C)C)NC(=O)[C@H](C)NC(=O)CSC[C@@H](C(N)=O)NC(=O)[C@H](Cc2ccc(O)cc2)N(C)C(=O)[C@H](Cc2ccccc2)NC(=O)[C@H](CCCNC(=N)N)NC(=O)[C@H](CCCNC(=N)N)NC(=O)[C@H]([C@@H](C)CC)NC1=O` [compound 522] the value was 100 to 1000 nM; for `CC[C@H](C)[C@@H]1NC(=O)[C@H](Cc2ccc(OCCN)cc2)NC(=O)[C@H](Cc2ccc(O)cc2)NC(=O)[C@H](CC(N)=O)NC(=O)[C@H](Cc2c[nH]c3ccccc23)NC(=O)[C@H](C(C)C)NC(=O)[C@H](Cc2ccccc2)N(C)C(=O)[C@H](C(C)C)NC(=O)[C@H](C)NC(=O)CSC[C@@H](C(N)=O)NC(=O)[C@H](Cc2ccc(O)cc2)N(C)C(=O)[C@H](Cc2ccccc2)NC(=O)[C@@H](CCCNC(=N)N)NC(=O)[C@H](CCCNC(=N)N)NC(=O)[C@H]([C@@H](C)CC)NC1=O` [compound 523], 100 to 1000 nM.
For `CC[C@H](C)[C@@H]1NC(=O)[C@H](Cc2ccc(OCCN)cc2)NC(=O)[C@H](Cc2ccc(O)cc2)NC(=O)[C@H](CC(N)=O)NC(=O)[C@H](Cc2c[nH]c3ccccc23)NC(=O)[C@H](C(C)C)NC(=O)[C@H](Cc2ccccc2)N(C)C(=O)[C@H](C(C)C)NC(=O)[C@H](C)NC(=O)CSC[C@@H](C(N)=O)NC(=O)[C@H](Cc2ccc(O)cc2)N(C)C(=O)[C@H](Cc2ccccc2)NC(=O)[C@H](CCCNC(=N)N)NC(=O)C(C)(C)NC(=O)[C@H]([C@@H](C)CC)NC1=O` [compound 524], the Kd was in the range of 100 to 1000 nM.
With `CC[C@H](C)[C@@H]1NC(=O)[C@H](Cc2ccc(O)cc2)NC(=O)[C@H](Cc2ccc(O)cc2)NC(=O)[C@H](CC(N)=O)NC(=O)[C@H](Cc2c[nH]c3ccccc23)NC(=O)[C@H](C(C)C)NC(=O)[C@H](Cc2ccccc2)N(C)C(=O)[C@H](C(C)C)NC(=O)[C@H](C)NC(=O)CSC[C@@H](C(=O)NCC(=O)N[C@@H](CCCCN)C(N)=O)NC(=O)[C@H](Cc2ccc(O)cc2)N(C)C(=O)[C@H](Cc2ccc(O)cc2)NC(=O)[C@H](CCCNC(=N)N)NC(=O)[C@H](CCCNC(=N)N)NC(=O)[C@H]([C@@H](C)CC)NC1=O` [compound 525], the Kd was in the range of 1 to 100 nM.
As to `CC[C@H](C)[C@@H]1NC(=O)[C@H](Cc2ccc(O)cc2)NC(=O)[C@H](Cc2ccc(O)cc2)NC(=O)[C@H](CC(N)=O)NC(=O)[C@H](Cc2c[nH]c3ccccc23)NC(=O)[C@H](C(C)C)NC(=O)[C@H](Cc2ccccc2)N(C)C(=O)[C@H](C(C)C)NC(=O)[C@H](C)NC(=O)CSC[C@@H](C(=O)NCC(=O)N[C@@H](CCCCN)C(N)=O)NC(=O)[C@H](Cc2ccc(O)cc2)N(C)C(=O)[C@H](Cc2ccc(O)cc2)NC(=O)[C@H](CCCNC(=N)N)NC(=O)[C@H](CCCCN)NC(=O)[C@H]([C@@H](C)CC)NC1=O` [compound 526], the Kd was in the range of 1 to 100 nM.

Source of the values: patent publication US20230203098A1, “HUMAN TRANSFERRIN RECEPTOR BINDING PEPTIDE” (priority 2020, published 2023).
